Data on seven molecules can be found in patent US12139508B2, “Steroid derivative regulators, method for preparing the same, and uses thereof” (JIANGSU HANSOH PHARMACEUTICAL GROUP CO., LTD., priority 2018, dated 2024).

A short description of data set [1]: Pharmacokinetic assay in Balb/c mice (plasma and brain tissue). It is filed as in vivo. The note with it: mouse, po, 5 mg/kg p.o., male Balb/c mice; for AUC(0-t): read-out: Area under curve AUC0-t; for AUC(0-inf): read-out: Area under curve AUC0-∞; for half-life: read-out: Half-life t1/2 (converted); for MRT: read-out: Mean residence time MRT; for Tmax: read-out: Peak time tmax; for Cmax: read-out: Plasma concentration Cmax. How it is done: Balb/c mice were used as test animals. The pharmacokinetic behavior in mice (plasma and brain tissue) of the compounds of Examples 2, 3, 5, 6, 9, 13, 59, 60, 61, 63, 71-74, 81, 103, 130, 134, 135, 137, 138, 140, 141, 143, 145 and 146 orally administered at a dose of 5 mg/kg was studied.
Each group had 24 male Balb/c mice. After an overnight fast, Balb/c mice were administered p.o. with the test compound at an administration dose of 5 mg/kg and an administration volume of 10 mL/kg.
0.2 ml of blood was taken from the heart before administration and at 0, 0.5, 1, 2, 4, 6, 8 and 24 hours after administration. The samples were stored in EDTA-K2 tubes, and centrifuged for 6 minutes at 4° C., 6000 rpm to separate the plasma. The plasma samples were stored at −80° C. The mice were sacrificed with CO2, and the whole brain tissue was taken out, weighed, placed in a 2 mL centrifuge tube and stored at −80° C.
1) 160 μL of acetonitrile was added to 40 μL of the plasma sample for precipitation, and then the mixture was centrifuged for 5-20 minutes at 3500×g.
2) 90 μL of acetonitrile containing the internal standard (100 ng/mL) was added to 30 μL of the plasma and brain homogenate samples for precipitation, and then the mixture was centrifuged for 8 minutes at 13000 rpm.
3) 70 μL of the treated supernatant was taken and added to 70 μL of water, and mixed by vortex for 10 minutes. 20 μL of the mixture was taken to analyze the concentration of the test compound by LC/MS/MS. LC/MS/MS analysis instrument: AB Sciex API 4000 Qtrap.
• Liquid chromatography condition: Shimadzu LC-20AD pump. • Chromatographic column: Agilent ZORBAX™ XDB-C18 (50×2.1 mm, 3.5 μm) (note: Aglient ZORBAX™ is a kind of column used in the reverse HPLC); • Mobile phase: Eluent A was 0.10% formic acid in water, and Eluent B was acetonitrile. • Flow rate: 0.4 mL/min • Elution time: 0-4.0 minutes, the eluent is as follows:
The main parameters of pharmacokinetics were calculated by WinNonlin 6.1.

The next data set deals with GABA-A receptor. In words: 35S-TBPS binding assay (GABAA receptor binding ability test). More on the design: species or system Sprague-Dawley rat. The following applies: rat cerebral cortex cell membrane, 5 μM GABA, 2 nM 35S-TBPS; read-out: 35S-TBPS bindng test: IC50 on inhibiting the TBPS binding activity. Put shortly: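 Rat (male Sprague-Dawley) cortical membranes in PBS were preincubated 5 min at 25° C with compound (from 1 μM, 3-fold, 8 points, 1% DMSO), then 5 μM GABA 5 min, then 2 nM ^35S-TBPS for 20 h at 4° C. Filter-bound counts gave % inhibition against DMSO and 10 μM P026-2 controls; IC50 by 4-parameter fit.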

Read-outs that look alike come from different tables or passages of the source.

As usually defined, the MRT is the average time that molecules of a dose stay in the body. The term Tmax denotes the time at which the peak concentration occurs. In general, IC50 refers to the point on the concentration scale where inhibition reaches its midpoint. Turning to `C[C@@]1(O)CC[C@H]2[C@H](CC[C@@H]3[C@@H]2CC[C@@]2(C)[C@H]3[C@@H]3C[C@@H]3[C@@H]2C(=O)Cn2ccc(C(F)(F)F)n2)C1` [Example 6, 1-((2R,4aS,4bR,6aS,7S,7aS,8aR,8bR,8cR,10aR)-2-Hydroxy-2,6a-dimethyloctadecahydrocyclopropa[4,5]cyclopenta[1,2-a]phenanthren-7-yl)-2-(3-(trifluoromethyl)-1H-pyrazol-1-yl)ethan-1-one], in data set [1] (brain tissue), the AUC(0-t) was 917 ng·h/mL, the AUC(0-inf) came out at 964 ng·h/mL, the half-life is 1.9 h and the MRT amounted to 2.4 h. Further, in data set [1] (brain tissue), the Tmax stood at 0.5 h and the Cmax was 464 ng/mL. Further, in data set [1] (plasma), the AUC(0-t) was determined as 409 ng·h/mL, the AUC(0-inf) came to 484 ng·h/mL, the half-life was 3.19 h and the MRT turned out to be 4.03 h. Besides, in data set [1] (plasma), the Tmax amounted to 0.5 h and the Cmax came to 219 ng/mL. Besides, the IC50 on GABA-A receptor was 3.1 nM.

`C[C@@]1(O)CC[C@H]2[C@H](CC[C@@H]3[C@@H]2CC[C@@]2(C)[C@H]3[C@@H]3C[C@@H]3[C@@H]2C(=O)Cn2ncnn2)C1` [Example 9, 1-((2R,4aS,4bR,6aS,7S,7aS,8aR,8bR,8cR,10aR)-2-Hydroxy-2,6a-dimethyloctadecahydrocyclopropa[4,5]cyclopenta[1,2-a]phenanthren-7-yl)-2-(2H-tetrazol-2-yl)ethan-1-one]: in data set [1] (brain tissue), the AUC(0-t) stood at 677 ng·h/mL, the AUC(0-inf) came out at 680 ng·h/mL, the half-life was 0.5 h and the MRT was found to be 0.9 h. Besides, in data set [1] (brain tissue), the Tmax came out at 0.5 h and the Cmax came to 605 ng/mL. Moreover, in data set [1] (plasma), the AUC(0-t) is 775 ng·h/mL, the AUC(0-inf) is 778 ng·h/mL, the half-life is 0.9 h and the MRT came out at 1.1 h. Moreover, in data set [1] (plasma), the time to peak (Tmax) worked out at 0.5 h and the Cmax amounted to 664 ng/mL. Further, the IC50 at GABA-A receptor turned out to be 21.3 nM.

With `C[C@@H]1C[C@H](C(=O)Cn2cc(C(F)(F)F)cn2)[C@@]2(C)CC[C@H]3[C@@H](CC[C@@H]4C[C@](C)(O)CC[C@@H]43)[C@H]12` [Example 59, 1-((3R,5R,8R,9R,10S,13S,14S,15R,17S)-3-Hydroxy-3,13,15-trimethylhexadecahydro-1H-cyclopenta[a]phenanthren-17-yl)-2-(4-(trifluoromethyl)-1H-pyrazol-1-yl)ethan-1-one], in data set [1] (brain tissue), the AUC(0-t) amounted to 2640 ng·h/mL, the AUC(0-inf) stood at 2680 ng·h/mL, the half-life was 3.18 h and the MRT is 4.81 h. In data set [1] (brain tissue), the Tmax was 1 h and the Cmax came to 678 ng/mL. In data set [1] (plasma), the AUC(0-t) turned out to be 1300 ng·h/mL, the AUC(0-inf) is 1320 ng·h/mL, the half-life was 2.99 h and the MRT is 4.15 h. In addition, in data set [1] (plasma), the Tmax was determined as 0.5 h and the Cmax is 554 ng/mL. At GABA-A receptor, the IC50 is 6.2 nM.

As to `C[C@@H]1C[C@H](C(=O)Cn2ncnn2)[C@@]2(C)CC[C@H]3[C@@H](CC[C@@H]4C[C@](C)(O)CC[C@@H]43)[C@H]12` [Example 63, 1-((3R,5R,8R,9R,10S,13S,14S,15R,17S)-3-Hydroxy-3,13,15-trimethylhexadecahydro-1H-cyclopenta[a]phenanthren-17-yl)-2-(2H-tetrazol-2-yl)ethan-1-one], in data set [1] (brain tissue), the AUC(0-t) was 603 ng·h/mL, the AUC(0-inf) worked out at 618 ng·h/mL, the half-life was 0.72 h and the MRT worked out at 1.21 h. Moreover, in data set [1] (brain tissue), the Tmax turned out to be 0.5 h and the Cmax turned out to be 486 ng/mL. Also, in data set [1] (plasma), the AUC(0-t) was determined as 599 ng·h/mL, the AUC(0-inf) stood at 604 ng·h/mL, the half-life is 2.58 h and the MRT turned out to be 2.42 h. Further, in data set [1] (plasma), the Tmax was determined as 0.5 h and the Cmax came to 335 ng/mL. In addition, the IC50 on GABA-A receptor stood at 6.1 nM.

For `C[C@@]1(O)CC[C@H]2[C@H](CC[C@@H]3[C@@H]2CC[C@@]2(C)[C@H]3[C@@H]3C[C@@H]3[C@@H]2C(=O)COc2cnc(C(F)(F)F)nc2)C1` [Example 130, 1-((2R,4aS,4bR,6aS,7S,7aS,8aR,8bR,8cR,10aR)-2-Hydroxy-2,6a-dimethyloctadecahydrocyclopropa[4,5]cyclopenta[1,2-a]phenanthren-7-yl)-2-((2-(trifluoromethyl)pyrimidin-5-yl)oxy)ethan-1-one], in data set [1] (brain tissue), the AUC(0-t) was determined as 2310 ng·h/mL, the AUC(0-inf) stood at 2630 ng·h/mL, the half-life is 2.49 h and the MRT turned out to be 3.88 h. In data set [1] (brain tissue), the Tmax was 0.5 h and the Cmax was 563 ng/mL. Also, in data set [1] (plasma), the AUC(0-t) stood at 1390 ng·h/mL, the AUC(0-inf) was 1560 ng·h/mL, the half-life is 2.21 h and the MRT was 3.83 h. In addition, in data set [1] (plasma), the Tmax was 0.5 h and the Cmax worked out at 307 ng/mL. The IC50 on GABA-A receptor stood at 4.2 nM.

Take `C[C@@H]1C[C@H](C(=O)Cn2cc(C#N)c(Cl)n2)[C@@]2(C)CC[C@H]3[C@@H](CC[C@@H]4C[C@](C)(O)CC[C@@H]43)[C@H]12` [Example 134, 3-Chloro-1-(2-((3R,5R,8R,9R,10S,13S,14S,15R,17S)-3-hydroxy-3,13,15-trimethylhexadecahydro-1H-cyclopenta[a]phenanthren-17-yl)-2-oxoethyl)-1H-pyrazole-4-carbonitrile]: in data set [1] (brain tissue), the AUC(0-t) was determined as 3210 ng·h/mL, the AUC(0-inf) turned out to be 3500 ng·h/mL, the half-life was 1.59 h and the MRT was found to be 3.22 h. In data set [1] (brain tissue), the time to peak (Tmax) was determined as 1 h and the Cmax was 892 ng/mL. In data set [1] (plasma), the AUC(0-t) was found to be 4630 ng·h/mL, the AUC(0-inf) is 5130 ng·h/mL, the half-life is 1.78 h and the MRT stood at 3.31 h. For the same molecule, in data set [1] (plasma), the Tmax is 0.5 h and the Cmax was 1750 ng/mL. For the same molecule, the IC50 at GABA-A receptor stood at 6.7 nM.

For `C[C@@H]1C[C@H](C(=O)Cn2nc(C#N)cc2C#N)[C@@]2(C)CC[C@H]3[C@@H](CC[C@@H]4C[C@](C)(O)CC[C@@H]43)[C@H]12` [Example 135, 1-(2-((3R,5R,8R,9R,10S,13S,14S,15R,17S)-3-Hydroxy-3,13,15-trimethylhexadecahydro-1H-cyclopenta[a]phenanthren-17-yl)-2-oxoethyl)-1H-pyrazole-3,5-dicarbonitrile], in data set [1] (brain tissue), the AUC(0-t) turned out to be 3740 ng·h/mL, the AUC(0-inf) was determined as 4450 ng·h/mL, the half-life is 2.82 h and the mean residence time MRT was 4.71 h. In data set [1] (brain tissue), the Tmax came to 2 h and the Cmax was determined as 724 ng/mL. Also, in data set [1] (plasma), the AUC(0-t) was found to be 4100 ng·h/mL, the AUC(0-inf) was 4110 ng·h/mL, the half-life was 2.06 h and the MRT came out at 4.38 h. In addition, in data set [1] (plasma), the Tmax is 2 h and the Cmax was 640 ng/mL. At GABA-A receptor, the IC50 was determined as 4.3 nM.
